Measurements published in US20140249122A1, “ANTI-DIABETIC AMINOSTEROID DERIVATIVES” (UNIVERSITE NICE SOPHIA ANTIPOLIS, priority 2011, published 2014).
Entries after “also recorded” stand apart in the source; their conditions may differ.

Key:
[1] = test system: GLUT4; test: Sensitivity of adipocytes to insulin (GLUT4 on the plasma membrane); format: cell-based; conditions: FIG. 3B
Protocol: The effect of insulin and of ST10 on the amount of GLUT4 on the plasma membrane was measured (FIG. 3A) and the sensitivity of the cells to insulin was calculated (FIG. 3B).

[2] = test system: 3T3-L1 adipocytes; test: Glucose uptake in 3T3-L1 adipocytes; format: cell-based; conditions: various insulin concentrations, with or without ST10
[3] = test system: GLUT4; test: GLUT4 at the surface of 3T3-L1 adipocytes, with or without insulin; format: cell-based; conditions: for effect on the effectiveness of insulin on GLUT4 translocation: 3T3-L1 adipocytes, 20 minutes, aminosteroid 50 μM, insulin 1 nM present or absent
Excerpt: One of the key components in the insulin-induced uptake of sugar by myocytes and adipocytes is the GLUT4 glucose (sugar) transporter. When insulin binds to its receptor at the surface of these cells, or during a muscle contraction, intracellular signalling pathways are activated, resulting in the translocation of GLUT4 from its intracellular storage compartment to the plasma membrane, where it enables sugar to enter from the extracellular medium. GLUT4 therefore plays an important role in carbohydrate homeostasis and, consequently, in T2D. 3T3-L1 adipocytes are stimulated for 20 minutes with the aminosteroids (50 μM), in the presence or absence of insulin (1 nM), and are labelled for GLUT4 at the surface of the cells. The percentage of GLUT4 at the surface of the cells is then determined.

[4] = test system: GLUT4; test: GLUT4 on the surface of insulin-resistant adipocytes; format: cell-based; conditions: adipocytes made insulin resistant by insulin for 24 h, then insulin for 20 min with or without ST10
[5] = set-up: species or system mice; conditions: mouse, in vivo
Protocol: Healthy mice were treated in the same way as previously. A dose of insulin was injected into these mice (at t=0). The blood glucose level of the mice was measured until 120 minutes after the insulin injection. […] The treatment with the ST20 derivative therefore prolongs the effect of insulin.

## CC(C)CCC[C@@H](C)[C@H]1CC[C@H]2[C@@H]3C[C@@H](NCCCNCCCCNCCCN)[C@H]4C[C@@H](O)CC[C@]4(C)[C@H]3CC[C@]12C [ST10, 6β-(spermine)cholestan-3β-ol]
[1]
  sensitivity of the cells to insulin: increases the sensitivity of the cells to insulin
[2]
  glucose uptake in adipocytes: increases glucose uptake in the adipocytes; also recorded: increased by ST10 for all the insulin concentrations tested
[3]
  effect on the effectiveness of insulin on GLUT4 translocation: increases the effectiveness of insulin on GLUT4 translocation
[3]; FIG. 1C
  increase in GLUT4 at the surface of the plasma membrane (PM), ST10 versus trodusquemine: greater in the presence of ST10 than in the presence of trodusquemine
[4]
  effect of insulin on GLUT4 on the surface of insulin-resistant cells: also increases the effect of the insulin

## CC(C)CCC[C@@H](C)[C@H]1CCC2C3C[C@@H](NCCCCNCCCN)C4=C[C@@H](O)CC[C@]4(C)C3CC[C@@]21C (stereo partly drawn) [ST20, 6β-(spermidine)cholesten-3β-ol]
[5]
  severe hypoglycaemia in the ITT: did not cause severe hypoglycaemia

## CC(C)[C@@H](CC[C@@H](C)[C@H]1CC[C@H]2[C@@H]3[C@H](O)C[C@H]4C[C@@H](NCCCNCCCCNCCCN)CC[C@]4(C)[C@H]3CC[C@]12C)OS(=O)(=O)O [trodusquemine, reference compound]
[3]
  effect on the effectiveness of insulin on GLUT4 translocation: not
